Experimental data as given in PubChem BioAssay AID256 (DTP/NCI, 2004).
Where “and” joins values, the source holds several entries; their conditions need not be identical. Equal entries are not always repeated. Inconclusive results and toxic doses are left out. Rule for the calls: active = survival T/C of 150% or more; inactive = T/C below 125% in these data.

System: CD2F1 mice, L1210 leukemia ip, survival T/C
Assay: NCI In Vivo Anticancer Drug Screen. Data for tumor model L1210 Leukemia (intraperitoneal) in CD2F1 (CDF1) mice
Settings: higher = longer survival
Method in brief: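 Activity against a transplanted murine tumor was judged by comparing the compound group with a vehicle group. The outcome in the treated animals was divided by that in the controls.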

[1] = endpoint: mean survival time, dose: 100.0 mg/kg/injection, schedule: Q04DX003 (ip), vehicle: saline with Tween-80
[2] = endpoint: mean survival time, dose: 200.0 mg/kg/injection, schedule: Q04DX003 (ip), vehicle: saline with Tween-80
[3] = endpoint: mean survival time, dose: 25.0 mg/kg/injection, schedule: Q01DX009 (ip), vehicle: saline with Tween-80
[4] = endpoint: mean survival time, dose: 50.0 mg/kg/injection, schedule: Q01DX009 (ip), vehicle: saline with Tween-80
[5] = endpoint: mean survival time, dose: 100.0 mg/kg/injection, schedule: Q01DX009 (ip), vehicle: saline with Tween-80
[6] = endpoint: mean survival time, dose: 200.0 mg/kg/injection, schedule: Q01DX009 (ip), vehicle: saline with Tween-80
[7] = endpoint: mean survival time, dose: 100.0 mg/kg/injection, schedule: Q01DX001 (ip), vehicle: saline with Tween-80
[8] = endpoint: mean survival time, dose: 200.0 mg/kg/injection, schedule: Q01DX001 (ip), vehicle: saline with Tween-80
[9] = endpoint: mean survival time, dose: 400.0 mg/kg/injection, schedule: Q01DX001 (ip), vehicle: saline with Tween-80
[10] = endpoint: mean survival time, dose: 25.0 mg/kg/injection, schedule: Q04DX002 (ip), vehicle: saline with Tween-80
[11] = endpoint: mean survival time, dose: 50.0 mg/kg/injection, schedule: Q04DX002 (ip), vehicle: saline with Tween-80
[12] = endpoint: mean survival time, dose: 100.0 mg/kg/injection, schedule: Q04DX002 (ip), vehicle: saline with Tween-80
[13] = endpoint: mean survival time, dose: 200.0 mg/kg/injection, schedule: Q04DX002 (ip), vehicle: saline with Tween-80
[14] = endpoint: mean survival time, dose: 100.0 mg/kg/injection, schedule: Q04DX003 (ip), vehicle: saline
[15] = endpoint: mean survival time, dose: 200.0 mg/kg/injection, schedule: Q04DX003 (ip), vehicle: saline

Measured: T/C

O=C(O)CCCC(=O)c1ccccc1
inactive: endpoint: mean survival time, dose: 50.0 mg/kg/injection, schedule: Q01DX009 (ip), vehicle: Klucel (hydroxypropylcellulose) (HPC) 91 % of control | endpoint: mean survival time, dose: 100.0 mg/kg/injection, schedule: Q01DX009 (ip), vehicle: Klucel (hydroxypropylcellulose) (HPC) 91 % of control | endpoint: mean survival time, dose: 200.0 mg/kg/injection, schedule: Q01DX009 (ip), vehicle: Klucel (hydroxypropylcellulose) (HPC) 95 % of control

Cn1cnc([N+](=O)[O-])c1Sc1ncnc2c1cnn2C1OC(CO)C(O)C1O (stereo not given)
inactive: endpoint: mean survival time, dose: 25.0 mg/kg/injection, schedule: Q01DX009 (ip), vehicle: other 95 % of control | endpoint: mean survival time, dose: 50.0 mg/kg/injection, schedule: Q01DX009 (ip), vehicle: other 114 % of control | endpoint: mean survival time, dose: 100.0 mg/kg/injection, schedule: Q01DX009 (ip), vehicle: other 97 % of control | endpoint: mean survival time, dose: 200.0 mg/kg/injection, schedule: Q01DX009 (ip), vehicle: other 108 % of control | endpoint: mean survival time, dose: 400.0 mg/kg/injection, schedule: Q01DX009 (ip), vehicle: other 117 % of control | endpoint: median survival time, dose: 10.0 mg/kg/injection, schedule: Q01DX005 (ip), vehicle: saline with Tween-80 96 % of control | endpoint: median survival time, dose: 20.0 mg/kg/injection, schedule: Q01DX005 (ip), vehicle: saline with Tween-80 103 % of control | endpoint: median survival time, dose: 40.0 mg/kg/injection, schedule: Q01DX005 (ip), vehicle: saline with Tween-80 103 % of control | endpoint: median survival time, dose: 80.0 mg/kg/injection, schedule: Q01DX005 (ip), vehicle: saline with Tween-80 102 % of control | endpoint: median survival time, dose: 160.0 mg/kg/injection, schedule: Q01DX005 (ip), vehicle: saline with Tween-80 91 % of control

c1ccc2c(c1)oc1c3ccccc3c3ccccc3c21
inactive: endpoint: median survival time, dose: 25.0 mg/kg/injection, schedule: Q04DX002 (ip), vehicle: saline with Tween-80 110 % of control | endpoint: median survival time, dose: 50.0 mg/kg/injection, schedule: Q04DX002 (ip), vehicle: saline with Tween-80 90 % of control | endpoint: median survival time, dose: 100.0 mg/kg/injection, schedule: Q04DX002 (ip), vehicle: saline with Tween-80 110 % of control | endpoint: median survival time, dose: 200.0 mg/kg/injection, schedule: Q04DX002 (ip), vehicle: saline with Tween-80 110 % of control

CCCCCCCc1c(C)c2ccc(OC)cc2[nH]c1=O
inactive: [1] 95 % of control | [2] 90 % of control

O=C(N/N=C\c1cc(Br)cc(Br)c1O)N/N=C/c1cc(Br)cc(Br)c1O
inactive: [3] 117 % of control | [4] 104 % of control and 111 % of control | [5] 116 % of control and 122 % of control | [6] 118 % of control and 94 % of control | endpoint: mean survival time, dose: 400.0 mg/kg/injection, schedule: Q01DX009 (ip), vehicle: saline with Tween-80 116 % of control and 88 % of control

O=C1/C(=C/c2ccccc2)CCS(=O)(=O)c2ccccc21
inactive: [7] 97 % of control | [8] 97 % of control | [9] 90 % of control

O=c1c2[nH]cnc2ncn1C1CCCC1
inactive: endpoint: mean survival time, dose: 100.0 mg/kg/injection, schedule: Q01DX001 (ip), vehicle: other 100 % of control | endpoint: mean survival time, dose: 200.0 mg/kg/injection, schedule: Q01DX001 (ip), vehicle: other 100 % of control | endpoint: mean survival time, dose: 400.0 mg/kg/injection, schedule: Q01DX001 (ip), vehicle: other 101 % of control

CC1OC1c1ccc(-c2ccc(C3OC3C)cc2)cc1 (stereo not given)
inactive: endpoint: mean survival time, dose: 150.0 mg/kg/injection, schedule: Q01DX Z (ip), vehicle: saline 101 % of control

Nc1nc(N)c2c(n1)NCN(OCc1c(Cl)cccc1Cl)C2
inactive: endpoint: mean survival time, dose: 0.75 mg/kg/injection, schedule: Q01DX009 (ip), vehicle: water 96 % of control | endpoint: mean survival time, dose: 1.5 mg/kg/injection, schedule: Q01DX009 (ip), vehicle: water 100 % of control | endpoint: mean survival time, dose: 3.0 mg/kg/injection, schedule: Q01DX009 (ip), vehicle: water 102 % of control | endpoint: mean survival time, dose: 6.0 mg/kg/injection, schedule: Q01DX009 (ip), vehicle: water 102 % of control | endpoint: mean survival time, dose: 12.0 mg/kg/injection, schedule: Q01DX009 (ip), vehicle: water 104 % of control | endpoint: mean survival time, dose: 24.0 mg/kg/injection, schedule: Q01DX009 (ip), vehicle: water 100 % of control

[Cl][Hg][CH2]CN1CCCCC1
inactive: [10] 94 % of control | [11] 94 % of control | [12] 94 % of control

COc1cc(C=C(c2ccc(N(C)C)cc2)c2ccc(N(C)C)cc2)c(OC)c2ccccc12
inactive: [7] 102 % of control | [12] 90 % of control | [8] 101 % of control | [13] 87 % of control | [9] 90 % of control

O=C(OC12CCCC1CC2)c1ccc([N+](=O)[O-])cc1 (stereo not given)
inactive: [5] 97 % of control | [6] 95 % of control

CCCCCCCCCCCCCCCCCCN1CCOCC1
inactive: endpoint: mean survival time, dose: 12.5 mg/kg/injection, schedule: Q01DX009 (ip), vehicle: saline with Tween-80 94 % of control | [3] 102 % of control | [4] 94 % of control

O=C(O)CCCCCCCC(Br)C(Br)CCCCCCCC(=O)O (stereo not given)
inactive: [10] 95 % of control | [11] 91 % of control | [12] 91 % of control | [13] 95 % of control

O=S(=O)(O)c1cncc(S(=O)(=O)O)n1
inactive: endpoint: mean survival time, dose: 100.0 mg/kg/injection, schedule: Q01DX009 (ip), vehicle: saline 90 % of control | [14] 100 % of control | endpoint: mean survival time, dose: 200.0 mg/kg/injection, schedule: Q01DX009 (ip), vehicle: saline 97 % of control | [15] 98 % of control | endpoint: mean survival time, dose: 400.0 mg/kg/injection, schedule: Q01DX009 (ip), vehicle: saline 100 % of control | endpoint: mean survival time, dose: 400.0 mg/kg/injection, schedule: Q04DX003 (ip), vehicle: saline 93 % of control

COc1cc(N=Nc2ccc(C(=O)O)cc2)ccc1N(CCCl)CCCl
inactive: endpoint: mean survival time, dose: 25.0 mg/kg/injection, schedule: Q04DX003 (ip), vehicle: Klucel (hydroxypropylcellulose) (HPC) 106 % of control and 109 % of control | endpoint: mean survival time, dose: 50.0 mg/kg/injection, schedule: Q04DX003 (ip), vehicle: Klucel (hydroxypropylcellulose) (HPC) 106 % of control and 112 % of control | endpoint: mean survival time, dose: 100.0 mg/kg/injection, schedule: Q04DX003 (ip), vehicle: Klucel (hydroxypropylcellulose) (HPC) 113 % of control and 98 % of control

Cc1ncc2cnccn12
inactive: endpoint: mean survival time, dose: 50.0 mg/kg/injection, schedule: Q01DX009 (ip), vehicle: saline sonified 101 % of control | endpoint: mean survival time, dose: 100.0 mg/kg/injection, schedule: Q01DX009 (ip), vehicle: saline sonified 104 % of control | [14] 97 % of control | [15] 101 % of control

COc1cc(OC)c(NC(=O)OCCSc2ccc(Cl)cc2)cc1Cl
inactive: [4] 92 % of control | [5] 92 % of control | [6] 92 % of control

Cc1cccnc1NC1=NCCO1
inactive: [1] 101 % of control | [2] 98 % of control | endpoint: mean survival time, dose: 400.0 mg/kg/injection, schedule: Q04DX003 (ip), vehicle: saline with Tween-80 98 % of control

CCCCCCCCCCCCOc1ccc(Cl)cc1
inactive: [12] 90 % of control | [13] 98 % of control | endpoint: mean survival time, dose: 400.0 mg/kg/injection, schedule: Q04DX002 (ip), vehicle: saline with Tween-80 90 % of control

O=C(O)CCC(=O)c1ccc2c(c1)CCCC2
inactive: endpoint: mean survival time, dose: 1.56 mg/kg/injection, schedule: Q04DX002 (ip), vehicle: saline with Tween-80 97 % of control | endpoint: mean survival time, dose: 3.13 mg/kg/injection, schedule: Q04DX002 (ip), vehicle: saline with Tween-80 97 % of control | endpoint: mean survival time, dose: 6.25 mg/kg/injection, schedule: Q04DX002 (ip), vehicle: saline with Tween-80 97 % of control | endpoint: mean survival time, dose: 12.5 mg/kg/injection, schedule: Q04DX002 (ip), vehicle: saline with Tween-80 104 % of control
